# Conditions: buffer; pH 7.4; 200.0 µM
row,Structure (SMILES),solubility kinetic [µg/mL]
1,Cc1c(C(=O)N2CCC2)oc2ccc(Br)cc12,19.5
2,O=C(Cc1cccc(F)c1)Nc1ccc2c(c1)CCC2,1.2
3,Cc1ccc2c(c1)C1(C)C(C(C)(C)N2C=O)C1(Cl)Cl (stereo not given),39.3
4,CCOC(=O)C(=CNc1cscc1S(=O)(=O)C(C)C)C(=O)OCC,38.9
5,CCCc1nc(SCC(=O)Nc2nccs2)c2ccccc2n1,0.9
6,O=C(NC(=S)Nc1ccccc1F)C1CCCCC1,3
7,COc1cccc(C2/C(=C(/O)c3ccc4c(c3)CC(C)O4)C(=O)C(=O)N2CC2CCCO2)c1 (stereo not given),64.7
8,O=c1c2ccccc2nc(Cc2cccc([N+](=O)[O-])c2)n1-c1ccc(O)cc1,47.8
9,Cc1ccc2c(c1)sc1nc(=O)n(-c3ccccc3)c(=O)n12,2.3
10,CCOC(=O)c1sc(NC(=O)CSC(=S)N2CCN(C)CC2)nc1C,> 60.4
11,CNC(=O)c1oc(-c2ccc(Cl)cc2)nc1C,> 37.6
12,Cc1ccc(C(=O)Nc2cccc(C(O)c3ccccc3)c2)cc1 (stereo not given),2.5
13,COc1ccccc1NC(=O)C1CC(C)OC1=O (stereo not given),> 37.4
14,O=C(COC(=O)C1CC1)Nc1ccc(Cl)cn1,> 38.2
15,O=C(COC(=O)c1cc(Cl)nc(Cl)c1)NCc1ccc2c(c1)OCO2,12.1
16,CCOc1ccc(C(C)=O)cc1Cc1c(O)[nH]c(=S)[nH]c1=O,46.3
17,N#Cc1ccccc1/C=C/C(=O)N1CCOCC1,> 36.3
18,Clc1cnc(Nc2cccnc2)c(Cl)c1,33.8
19,CC(=O)c1cccc(NC(=O)C(NC(C)C)c2ccccc2)c1 (stereo not given),> 46.6
20,COc1ccc(-c2cn3cc([N+](=O)[O-])ccc3n2)cc1OC,16.6
21,COc1ccc(OCC(=O)Nc2ccccc2Cl)cc1,4.5
22,O=C(c1ccc([N+](=O)[O-])cc1)N(c1ccccn1)c1ccccn1,> 48

row,Structure (SMILES),solubility kinetic [µg/mL]
1,Cc1ccccc1NC(=O)c1cccc(C(=O)Nc2ccccc2C)n1,0.3
2,CCOn1c(=O)c(=O)n(OC)c2ccccc21,> 35.4
3,O=C(O)CSCC(=O)NCc1csc2ccc(Cl)cc12,37.9
4,Cc1cccc(NC(=O)Cc2c(F)cccc2Cl)n1,> 41.8
5,FC(F)(F)c1nc2cc3nc4ccccc4[nH]c3cc2n1,9.2
6,O=C(COC(=O)c1cccs1)NCc1cccs1,40
7,O=C(COC(=O)c1ccc(F)cc1)Nc1ccc(Cl)cn1,0.8
8,CCOC(=O)C1Nc2ccc(C(=O)O)cc2C2C=CCC12 (stereo not given),> 43.1
9,O=C(NCc1ccccc1F)C1CCCN(c2cnccn2)C1 (stereo not given),44.7
10,CN1CC(C(=O)O)Cc2c1ccc1ccccc21 (stereo not given),31.7
11,NC(=O)Cn1cc(C(=O)c2ccccc2)c2ccccc21,10.8
12,OC(CN1CC=C(c2ccccc2)CC1)c1ccccc1 (stereo not given),40.8
13,O=C(OCC(=O)c1ccc[nH]1)c1ccc(C(F)(F)F)cc1,6.2
14,CN(C)c1cc(Nc2ccc(O)cc2)c([N+](=O)[O-])c2nonc12,0.7
15,O=C(Cc1cccs1)NCc1cccc(C(F)(F)F)c1,42.1
16,O=C(COC(=O)/C=C/c1ccccc1Cl)NCc1ccco1,14.4
17,O=C(CSc1ccccn1)N1CCNC1=O,> 35.6
18,O=C(OCC(=O)N1CCN(C(=O)c2ccco2)CC1)c1cc(F)c(F)cc1Cl,> 61.9
19,CCCN(Cc1ccccc1)C(=S)Nc1ccc(F)cc1,39.2
20,Cn1c(=O)n(CC(=O)O)c(=O)c2c1nc1n2CCCN1Cc1ccccc1,51.3
21,NC(CO)(CO)COCc1ccccc1,> 31.7
22,COC(=O)c1ccc2c(=O)n(-c3ccccc3F)c(=S)[nH]c2c1,1

row,Structure (SMILES),solubility kinetic [µg/mL]
1,CC(C)CCOc1cccc(OCC(=O)Nc2ccncc2)c1,27.7
2,COc1ccc(/C=C/C(=O)Nc2ccc(C)c(S(=O)(=O)N3CCOCC3)c2)cc1,7.4
3,O=C(CN1C(=O)NC2(CCCCCCC2)C1=O)Nc1ccc(OC(F)F)cc1,20.8
4,C[C@H](Nc1ccc(C(F)(F)F)cc1[N+](=O)[O-])C(=O)O.[Cl-],> 47
5,CS(=O)(=O)c1ccc(C(=O)OCC(=O)NC(=O)C2COc3ccccc3O2)cc1[N+](=O)[O-] (stereo not given),39.2
6,CCOC(=O)C1CCN(S(=O)(=O)c2ccc(C)c(C)c2)CC1,4.5
7,NC(=O)c1cc(S(=O)(=O)NCCCc2ccco2)cs1,> 47.2
8,O=C(Cc1ccccc1)NCC(=O)Nc1ccccc1Br,51.4
9,CCOc1ccc(NC(=O)c2[nH]c(C)c(C(C)=O)c2C)cc1,3.4
10,CC(=O)CC1(OC(C)=O)C(=O)N(C)c2ccccc21 (stereo not given),> 39.2
11,CC(C)(C)c1ccccc1NC(=O)C1=COCCO1,> 39.2
12,Cc1noc(C)c1C(=O)Nc1ccc(C#N)cc1,> 36.2
13,O=C(Nc1cccc2cccnc12)c1cc(F)c(F)cc1Cl,< 0.3
14,CC(Sc1nc(N)cc(=O)[nH]1)C(=O)N1CCOCC1 (stereo not given),> 42.6
15,O=C(c1ccccc1)C1CCN(C(=O)c2cccs2)CC1,38.9
16,COc1ccc2oc(C(=O)NC(C)(C)C)c(C)c2c1,1.8
17,CCN(CC)Cc1c(O)ccc2c(=O)c(-c3ccccc3OC)coc12,> 53
18,CCCCN(C(=O)C1CCCO1)c1c(N)n(CCC)c(=O)[nH]c1=O (stereo not given),> 50.8
19,O=C(Nc1cc(=O)[nH]c(=O)[nH]1)c1cc(Cl)ccc1Cl,> 45
20,COc1ccc(-c2cc(-c3ccco3)[nH]c(=O)c2C#N)cc1,5.3
21,CSc1cccc(NC(=O)CCCNC(=O)c2ccc(Cl)cc2)c1,4.5
22,C=CCNC(=S)N1CCN(C2CCCCC2)CC1,> 40.1

row,Structure (SMILES),solubility kinetic [µg/mL]
1,COc1ccc(S(=O)(=O)N2CCc3ccccc32)cc1C(=O)NCC(c1ccco1)N1CCCC1 (stereo not given),20.1
2,CC1CC(C)CN(S(=O)(=O)CC23CCC(CC2=O)C3(C)C)C1 (stereo not given),44.8
3,O=S(=O)(c1ccccc1F)N1CCCc2ccccc21,11.2
4,COCCCNC(=S)Nc1c(C)cc(C)cc1C,37.2
5,CCc1ccc(N2C(=O)C3C(C2=O)N2CCCN2C3c2ccccc2)cc1 (stereo not given),> 54.2
6,CCCOc1ccccc1NC(=O)c1ccc([N+](=O)[O-])cc1,4.1
7,O=C(CCc1ccccc1)NCc1ccc(F)cc1,34.1
8,Cc1cccc(Cc2nnc(CCC(=O)N(C)Cc3ccncc3C)o2)c1,> 54.7
9,COc1ccc(S(=O)(=O)NCc2cccnc2)c2ccccc12,37.2
10,Cc1ccc(C(=O)Nc2ccc3c(c2)OCO3)cc1Cl,< 0.6
11,Cc1cnc(C(=O)NCC(c2ccccc2)c2ccccc2)cn1,0.8
12,CS(=O)(=O)N(CC(=O)N1CCOCC1)c1ccccc1,> 44.8
13,COc1ccc(NC(=S)Nc2ccc(OC(F)F)cc2)cn1,35
14,Cc1cc(SCC(=O)[O-])nc2ccccc12,31
15,Clc1cccc(-c2nc(NCC3CCCO3)c3ccccc3n2)c1 (stereo not given),1.2
16,O=C(Nc1ccc2c(c1)OCO2)Nc1ccccc1F,2.7
17,Cc1cccc(C2C3=C(CCCC3=O)N=C3c4ccccc4C(=O)C32)c1 (stereo not given),2.3
18,COc1ccc(OC)c(NC(=O)Nc2cccnc2)c1,> 41
19,Cc1ccc(/C=C/C(=O)O)cc1S(=O)(=O)N1CCc2ccccc21,> 51.5

# — PubChem BioAssay AID1996
